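Assay format: 96-well plates, 48-hour exposure. GI50 marks 50% less growth. TGI: concentration producing complete growth inhibition.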
Legend:
Experiment in all cases: inhibition of tumour cell growth, NCI panel, 48 h; in the data active means GI50 below about 0.43 µM; inactive means the rest
[1] = test system: IGROV1 ovarian
[2] = test system: SK-MEL-2 melanoma
[3] = test system: SF-295 CNS
[4] = test system: SK-MEL-28 melanoma
[5] = test system: SF-268 CNS
[6] = test system: ACHN renal
[7] = test system: UO-31 renal
[8] = test system: NCI-H226 lung
[9] = test system: HCT-15 colon
[10] = test system: COLO 205 colon
[11] = test system: MDA-MB-231 breast
[12] = test system: MOLT-4 leukemia
[13] = test system: TK-10 renal
[14] = test system: HCC-2998 colon
[15] = test system: OVCAR-3 ovarian
[16] = test system: DU-145 prostate
[17] = test system: HCT-116 colon
[18] = test system: LOX IMVI melanoma
[19] = test system: HS 578T breast
[20] = test system: BT-549 breast
[21] = test system: SW-620 colon
[22] = test system: MDA-MB-435
[23] = test system: SNB-19 CNS
[24] = test system: RXF 393 renal
[25] = test system: OVCAR-4 ovarian
[26] = test system: MALME-3M melanoma
[27] = test system: M14 melanoma
[28] = test system: HOP-92 NSCLC
[29] = test system: U251 CNS
[30] = test system: PC-3 prostate
[31] = test system: EKVX NSCLC
[32] = test system: SF-539 CNS
[33] = test system: 786-0 renal
[34] = test system: HT29 colon
[35] = test system: K-562 leukemia
[36] = test system: A498 renal
[37] = test system: RPMI-8226 leukemia
[38] = test system: HL-60(TB) leukemia
[39] = test system: CAKI-1 renal
[40] = test system: MCF7 breast
[41] = test system: T-47D breast
[42] = test system: SNB-75 CNS
[43] = test system: OVCAR-8 ovarian
[44] = test system: OVCAR-5 ovarian
[45] = test system: SK-MEL-5 melanoma
[46] = test system: NCI-H460 lung
[47] = test system: SN12C renal
[48] = test system: NCI-H522 lung
[49] = test system: NCI-H23 lung
[50] = test system: SR leukemia
[51] = test system: NCI/ADR-RES ovarian
[52] = test system: HOP-62 NSCLC
[53] = test system: CCRF-CEM leukemia
[54] = test system: UACC-62 melanoma
[55] = test system: KM12 colon
[56] = test system: SK-OV-3 ovarian
[57] = test system: A549 NSCLC
[58] = test system: UACC-257 melanoma

CCN(CC)c1ccc(/C=N/NC(=O)c2ccc(S(C)(=O)=O)cc2)c(O)c1
> 69500 nM: TGI [43]
> 80300 nM: TGI [25]
2450 nM: TGI [27]
> 29300 nM: TGI [42]
16000 nM: TGI [46]
> 62100 nM: TGI [24]
inactive: GI50 [2] 777 nM | GI50 [19] 6440 nM | GI50 [20] 596 nM | GI50 [21] 438 nM | GI50 [22] 605 nM | GI50 [23] 560 nM | GI50 [24] 452 nM | GI50 [26] 491 nM | GI50 [28] 439 nM | GI50 [34] 469 nM | GI50 [35] 900 nM | GI50 [36] 4980 nM | GI50 [41] 444 nM | GI50 [44] 2860 nM | GI50 [48] 455 nM | GI50 [49] 537 nM | GI50 [51] 467 nM | GI50 [57] 542 nM
5190 nM: TGI [8]
> 39900 nM: TGI [20]
2490 nM: TGI [45]
5600 nM: TGI [58]
> 57900 nM: TGI [52]
> 100000 nM: TGI [1] | TGI [2] | TGI [3] | TGI [4] | TGI [5] | TGI [6] | TGI [9] | TGI [10] | TGI [11] | TGI [12] | TGI [13] | TGI [14] | TGI [15] | TGI [16] | TGI [17] | TGI [19] | TGI [21] | TGI [22] | TGI [23] | TGI [30] | TGI [31] | TGI [33] | TGI [34] | TGI [35] | TGI [36] | TGI [37] | TGI [39] | TGI [40] | TGI [41] | TGI [44] | TGI [47] | TGI [48] | TGI [49] | TGI [50] | TGI [53] | TGI [55] | TGI [57]
57800 nM: TGI [56]
> 82400 nM: TGI [26]
active: GI50 [1] 292 nM | GI50 [3] 259 nM | GI50 [4] 362 nM | GI50 [5] 167 nM | GI50 [6] 179 nM | GI50 [7] 200 nM | GI50 [8] 174 nM | GI50 [9] 120 nM | GI50 [10] 297 nM | GI50 [11] 347 nM | GI50 [12] 253 nM | GI50 [13] 356 nM | GI50 [14] 292 nM | GI50 [15] 177 nM | GI50 [16] 308 nM | GI50 [17] 186 nM | GI50 [18] 150 nM | GI50 [25] 139 nM | GI50 [27] 210 nM | GI50 [29] 238 nM | GI50 [30] 409 nM | GI50 [31] 222 nM | GI50 [32] 287 nM | GI50 [33] 246 nM | GI50 [37] 399 nM | GI50 [38] 288 nM | GI50 [39] 199 nM | GI50 [40] 300 nM | GI50 [42] 292 nM | GI50 [43] 320 nM | GI50 [45] 330 nM | GI50 [46] 179 nM | GI50 [47] 415 nM | GI50 [50] 97.2 nM | GI50 [52] 156 nM | GI50 [53] 82.5 nM | GI50 [54] 306 nM | GI50 [55] 418 nM | GI50 [56] 251 nM | GI50 [58] 340 nM
2760 nM: TGI [18]
3490 nM: TGI [7]
> 44400 nM: TGI [51]
32900 nM: TGI [28]
12000 nM: TGI [32]
15100 nM: TGI [54]
> 41000 nM: TGI [29]
3010 nM: TGI [38]

C[C@H]1CCC/C=C/[C@@H]2C[C@H](O)C[C@H]2[C@H](O)[C@@H](S(=O)C[C@@H](N)C(=O)O)CC(=O)O1 (some centres undefined)
1620 nM: TGI [7]
107 nM: TGI [45]
992 nM: TGI [41]
2840 nM: TGI [43]
25.7 nM: TGI [26]
384 nM: TGI [51]
86700 nM: TGI [24]
> 52300 nM: TGI [31]
29.3 nM: TGI [10]
> 19900 nM: TGI [5]
8130 nM: TGI [49]
149 nM: TGI [36]
> 26200 nM: TGI [30]
1830 nM: TGI [47]
870 nM: TGI [48]
> 100000 nM: TGI [3] | TGI [4] | TGI [16] | TGI [19] | TGI [20] | TGI [22] | TGI [23] | TGI [27] | TGI [29] | TGI [32] | TGI [35] | TGI [44] | TGI [46] | TGI [52] | TGI [54] | TGI [57] | TGI [58]
669 nM: TGI [6]
60.5 nM: TGI [55]
63.6 nM: TGI [18]
> 95300 nM: TGI [37]
52.8 nM: TGI [11]
inactive: GI50 [2] 1290 nM | GI50 [16] 434 nM | GI50 [24] 20200 nM | GI50 [35] 884 nM | GI50 [44] > 100000 nM
19100 nM: TGI [1]
1690 nM: TGI [17]
19.4 nM: TGI [42]
256 nM: TGI [14]
1650 nM: TGI [28]
2260 nM: TGI [9]
> 75000 nM: TGI [25]
> 82800 nM: TGI [56]
active: GI50 [1] 238 nM | GI50 [3] 109 nM | GI50 [4] 29.1 nM | GI50 [5] 20.7 nM | GI50 [6] 83.3 nM | GI50 [7] 37 nM | GI50 [8] 19.3 nM | GI50 [9] 137 nM | GI50 [10] 14.4 nM | GI50 [11] 25.1 nM | GI50 [12] 46.4 nM | GI50 [13] 199 nM | GI50 [14] 30.3 nM | GI50 [15] 42.5 nM | GI50 [17] 32.5 nM | GI50 [18] 20.3 nM | GI50 [19] 15.2 nM | GI50 [20] 86.2 nM | GI50 [21] 53.3 nM | GI50 [22] 48 nM | GI50 [25] 44.5 nM | GI50 [27] 42.9 nM | GI50 [28] 42.8 nM | GI50 [29] 70.9 nM | GI50 [31] 84.2 nM | GI50 [32] 35.8 nM | GI50 [33] < 18.1 nM | GI50 [36] 30.9 nM | GI50 [37] 395 nM | GI50 [38] 142 nM | GI50 [39] 210 nM | GI50 [40] 30.3 nM | GI50 [41] 244 nM | GI50 [43] 32.3 nM | GI50 [45] 20.9 nM | GI50 [46] 245 nM | GI50 [47] 156 nM | GI50 [48] 175 nM | GI50 [49] 86.2 nM | GI50 [50] 82 nM | GI50 [51] < 16.5 nM | GI50 [52] 241 nM | GI50 [53] 50.8 nM | GI50 [54] 29.7 nM | GI50 [55] < 14 nM | GI50 [56] 117 nM | GI50 [58] < 18.2 nM
50200 nM: TGI [53]

Source: PubChem BioAssay (NCI)
